Assay results from patent publication US20250249025A1, “DRUG DELIVERY CARRIER UTILIZING PROPERTY OF D-ALLOSE BEING UPTAKEN BY CANCER CELL, DRUG DELIVERY METHOD, AND COMPOSITION FOR TREATING RENAL CELL CARCINOMA” (NATIONAL UNIVERSITY CORPORATION KAGAWA UNIVERSITY, priority 2019, published 2025).

Legend:
[1] = test system: human bladder carcinoma cell line RT112; test: Rare sugar uptake experiment, sugar content in disrupted cell suspension of RT112; assay type: cell-based
Method: (§1) An uptake amount of a rare sugar, which had been added to a medium, into carcinoma cells was analyzed using the cell lines of three types of cancers. As the rare sugar, four kinds, that is, D-allose, D-allulose (D-psicose), L-allulose (L-psicose), and allitol were used, while D-glucose and fructose were used as a monosaccharide which was not a rare sugar.
(§2) Cells of each of the cell lines were cultured in RPMI-1640 media and during culturing, six sugars were each added to the resulting media and cultured. After culturing, an amount of each sugar taken up into the cells was analyzed. The medium to which no sugar was added during culturing was used as a control.
(§3) Used were human bladder carcinoma cell lines (RT112, 253), and J82), human prostatic carcinoma cell lines (LNCa, Du145, and PC-3), and human renal cell carcinoma cell lines (ACHN, Caki-I, and Caki-II).
(§4) After cells were cultured in RPMI-1640 (2000 mg D-glucose/L) media, the above monosaccharides and rare sugars were added to the resulting media, respectively. Described specifically, they were following seven combinations: RPMI-1640 alone (control), RPMI-1640+D-glucose, RPMI-1640+L-allulose, RPMI-1640+D-allulose, RPMI-1640+D-fructose, RPMI-1640+D-allose, and RPMI-1640+D-allitol. The final concentration of the sugar in the medium was adjusted to 10 mM and no sugar was added in the control.
(§5) Five-ml portions of a 3.0×10^4 cells/ml cell suspension prepared using RPMI-1640 were seeded in dishes having a diameter of 6 cm (1.5×10^5 cells/dish) and cultured for 24 hours in the RPMI-1640 medium containing 2000 mg/l of D-glucose as a nutrient source. Twenty-four hours later, the media were changed to the culture solutions containing the monosaccharides and rare sugars described above in 2), respectively, followed by culturing for 48 hours.
(§6) After culturing for 48 hours, the attached human carcinoma cells were mechanically separated and collected in a Spitz tube together with the culture solution and floating cells. After the supernatant formed by centrifugation (4° C., 1200 rpm, and 5 minutes) was removed to obtain cell pellets alone, 5 ml of a phosphate buffer physiological saline (PBS) was added for the purpose of washing to obtain a cell suspension of the cell pellets. A gain, the resulting cell suspension was centrifuged at 4° C. and 1200 rpm for 5 minutes and the supernatant was removed. To the cell pellets after washing was added 1 ml of pure water to suspend them therein. Ultrasonic disruption (intensity: 40%, 30 seconds) was then performed and the monosaccharide in the disrupted cell suspension was labeled with ABEE, followed by analysis by HPLC. From the area thus obtained, the sugar content in the cells was determined using a calibration curve. With respect to the ketose, two peaks were found after labeling with ABEE so that the sugar content in the cells was determined from the calibration curves of both peaks.

[2] = test system: human prostate carcinoma cell line PC-3; test: Rare sugar uptake experiment, sugar content in disrupted cell suspension of PC-3; assay type: cell-based
Method: as §1, §2, §3, §4, §5, §6

Caki-I tumor = test: D-allose concentration in tumor after intraperitoneal injection, Caki-I xenograft mouse model; assay type: in vivo; settings: Caki-I xenograft mice, 400 mg/kg intraperitoneal
Method: (§7) The experiment of the present example used two human renal cell carcinoma cell lines (Caki-I and ACHN). Each cell was cultured under the wet environment of 37° C. and 5% CO2 by using a RPMI-1640 culture solution (2000 mg D-glucose/L) containing a 10% fetal calf serum, a HEPES buffer, and penicillin-streptomycin.
(§8) With respect to a renal cell carcinoma xenograft mouse model, a 1.0×10^5 cells/ml of a cell suspension was obtained by adjusting the cultured cells with a MEM culture solution and then 0.1 ml of the resulting suspension was injected into the femoral subcutaneous tissue of Female athymic nude mice (BALB/c-nu/nu, 6-week-old). After checking that the tumor volume was 200 mm^3 or more one week after the injection, the mice were provided for the experiment thereafter.
A 400 mg/kg/0.4 mL solution of rare sugar D-allose was prepared using physiological saline and was intraperitoneally injected into the xenograft mouse models of two human renal cell carcinoma cell lines (Caki-I and ACHN) through a 27 G needle. A tumor was enucleated from the mouse before […] administration and 1 hour, 2 hours, and 4 hours after the administration. […] A monosaccharide in the supernatant thus obtained was labeled with ABEE (4-aminobenzoic acid ethyl ester) and the quantitative analysis of D-allose was performed by HPLC (high performance liquid chromatography). […]

[3] = test system: xenograft mouse model made using ACHN; test: Change of tumor volume by intraperitoneal D-allose injection, ACHN xenograft mouse model; assay type: in vivo, mice; settings: 400 mg/kg intraperitoneal once a day, on and after day 13, Mann-Whitney U test
Method: as §7, §8
The day when the tumor size of the renal cell carcinoma xenograft mouse models became 200 mm^3 or more was called day 0 and the intraperitoneal injection of a D-allose-containing solution was started from day 1. The solution injected is 0.4 mL of physiological saline or a solution obtained by dissolving 100 mg/kg or 400 mg/kg of D-allose in 0.4 mL physiological saline. […] The body weight of the mice and the long and short diameters of the tumor were measured over time twice a week. […]

[4] = Fundamental safety tests (mutagenicity, biodegradability, oral acute toxicity, skin and eye primary irritation); settings: conducted by a designated agency at the inventors' request
Excerpt: With respect to the verification of the safety of D-allose necessary for the use of it as a pharmaceutical ingredient, it was expectable that it was safe because a rare sugar was a monosaccharide present in nature, though its amount was trace. A mutagenicity test, a biodegradability test, and three acute toxicity tests (oral acute toxicity test, skin primary irritation test, and eye primary irritation test) have been determined as the most fundamental safety tests. The present inventors asked a designated agency to conduct the fundamental safety tests of D-allose.

O=C[C@H](O)[C@H](O)[C@H](O)[C@H](O)CO [D-allose]
D-glucose content in cell ([1]; RT112, named sugar added to RPMI-1640 at 10 mM, 48 hours, HPLC after ABEE labeling): 9.7 µg
Content in cell of the added sugar ([1]; human, 48 h, 10 mM): 0.0 µg
D-glucose content in cell ([2]; PC-3, named sugar added to RPMI-1640 at 10 mM, 48 hours, HPLC after ABEE labeling): 3.8 µg
Content in cell of the added sugar ([2]; human, 48 h, 10 mM): 7.5 µg
D-allose in tumor one hour after intraperitoneal injection (Caki-I tumor; HPLC, FIG. 4): detected
Time after injection at which D-allose concentration in tumor became the highest (Caki-I tumor; sampled 1, 2, 4 hours): one
Tumor volume versus Control group [3]: significantly smaller than the Control group
Result of fundamental safety tests [4]: no safety problems
